≈ marks a conversion by molar mass, not a printed value.
What was measured:
[1] = tested on: P. falciparum D6; assay: Malaria SYBR Green Fluorescence Assay, D6 strain; type: cell-based, Plasmodium falciparum
[2] = tested on: P. falciparum C235; assay: Malaria SYBR Green Fluorescence Assay, C235 strain; type: cell-based, Plasmodium falciparum
[3] = tested on: P. falciparum W2; assay: Malaria SYBR Green Fluorescence Assay, W2 strain; type: cell-based, Plasmodium falciparum
[4] = biological target: hERG potassium ion channel (Homo sapiens, UniProt Q12809); assay: hERG patch clamp assay (% inhibition at 10 μM); details: for hERG (% inhibition): 10 μM
Chain of hERG potassium ion channel (Q12809 whole entry): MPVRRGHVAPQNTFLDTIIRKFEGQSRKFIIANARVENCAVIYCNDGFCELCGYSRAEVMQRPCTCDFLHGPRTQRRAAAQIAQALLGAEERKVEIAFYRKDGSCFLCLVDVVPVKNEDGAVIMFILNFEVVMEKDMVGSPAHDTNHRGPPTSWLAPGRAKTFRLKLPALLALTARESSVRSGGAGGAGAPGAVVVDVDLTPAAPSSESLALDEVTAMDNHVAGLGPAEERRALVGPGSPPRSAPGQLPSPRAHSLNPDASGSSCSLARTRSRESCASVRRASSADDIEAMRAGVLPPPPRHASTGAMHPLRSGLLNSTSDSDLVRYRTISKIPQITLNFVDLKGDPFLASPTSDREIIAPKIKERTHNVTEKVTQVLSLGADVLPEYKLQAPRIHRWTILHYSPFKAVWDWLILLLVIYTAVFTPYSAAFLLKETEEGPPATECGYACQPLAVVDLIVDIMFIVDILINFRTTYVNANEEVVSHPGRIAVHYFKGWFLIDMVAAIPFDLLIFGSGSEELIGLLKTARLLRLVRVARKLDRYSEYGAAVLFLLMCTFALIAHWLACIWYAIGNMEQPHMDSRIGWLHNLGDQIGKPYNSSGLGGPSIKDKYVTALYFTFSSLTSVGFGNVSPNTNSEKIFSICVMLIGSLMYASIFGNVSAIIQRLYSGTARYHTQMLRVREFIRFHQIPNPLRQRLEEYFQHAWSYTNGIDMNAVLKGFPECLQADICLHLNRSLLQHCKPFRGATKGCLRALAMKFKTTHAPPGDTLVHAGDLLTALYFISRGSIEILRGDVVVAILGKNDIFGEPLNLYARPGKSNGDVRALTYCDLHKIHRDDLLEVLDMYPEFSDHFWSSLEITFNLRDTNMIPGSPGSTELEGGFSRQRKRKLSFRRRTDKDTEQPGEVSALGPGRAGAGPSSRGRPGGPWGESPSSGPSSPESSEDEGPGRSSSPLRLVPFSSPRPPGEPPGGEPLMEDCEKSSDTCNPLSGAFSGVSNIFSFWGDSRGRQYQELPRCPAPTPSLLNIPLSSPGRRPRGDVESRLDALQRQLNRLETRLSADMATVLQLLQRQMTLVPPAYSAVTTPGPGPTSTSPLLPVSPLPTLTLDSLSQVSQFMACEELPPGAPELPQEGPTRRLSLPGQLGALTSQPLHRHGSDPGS

[5] = % inhibition at 10 μM, patch clamp
[6] = Plasmodium falciparum, SYBR Green Assay

Compound: CN1CCC(Nc2nc(-c3ccccc3)nc(C(Cl)(Cl)Cl)n2)CC1 [Cmpd 237]
- D6 ([1]; SYBR Green Assay): 47 ng/mL
- C235 ([2]; SYBR Green Assay): 31 ng/mL
- W2 ([3]; SYBR Green Assay): 32 ng/mL
- hERG [4, 5]: 107%

Compound: CCN(CC)CCNc1nc(Cc2ccccc2OC)nc(C(Cl)(Cl)Cl)n1 [Cmpd 70]
- D6 ([1]; SYBR Green Assay): 6 ng/mL
- C235 ([2]; SYBR Green Assay): 6 ng/mL
- W2 ([3]; SYBR Green Assay): 6 ng/mL
- hERG [4, 5]: 100%

Compound: ClC(C1═NC(NCCO)═NC(C2═CC(C(F)(F)F)═CC═C2)═N1)(Cl)Cl [Compound 647]
- D6 (SYBR Green Assay IC50) [1]: 0.035 µg/mL
- C235 (SYBR Green Assay IC50) [2]: 0.039 µg/mL
- W2 (SYBR Green Assay IC50) [3]: 0.023 µg/mL
- hERG (% inhibition) [4]: 100%

Compound: CN1CCCC1CCNc1nc(Nc2ccccc2N2CCOCC2)nc(C(Cl)(Cl)Cl)n1 (stereo not shown) [Cmpd 64]
- D6 ([1]; SYBR Green Assay): 140 ng/mL
- C235 ([2]; SYBR Green Assay): 121 ng/mL
- W2 ([3]; SYBR Green Assay): 75 ng/mL
- hERG [4, 5]: 100%

Compound: NC1(CNc2nc(-c3cccc(C(F)(F)F)c3)nc(C(Cl)(Cl)Cl)n2)CCOCC1 [Cmpd 315]
- D6 ([1]; SYBR Green Assay): 3 ng/mL
- C235 ([2]; SYBR Green Assay): 8 ng/mL
- W2 ([3]; SYBR Green Assay): 1 ng/mL
- hERG [4, 5]: 36%

Compound: CC(C)(C)c1ccc(-c2nc(N3CCNCC3)nc(C(Cl)(Cl)Cl)n2)cc1 [Cmpd 161]
- D6 ([1]; SYBR Green Assay): 88 ng/mL
- C235 ([2]; SYBR Green Assay): 98 ng/mL
- W2 ([3]; SYBR Green Assay): 32 ng/mL
- hERG [4, 5]: 15%

Compound: 4-((4-((pyridin-2-ylmethyl)amino)-6-(trichloromethyl)-1,3,5-triazin-2-yl)amino)phenol [Example 14]
- D6 ([1]; SYBR Green Assay): 37 ng/mL
- C235 ([2]; SYBR Green Assay): 36 ng/mL
- W2 ([3]; SYBR Green Assay): 24 ng/mL
- hERG [4, 5]: 11%

Compound: COc1ccccc1Nc1nc(N2CCN(C)CC2)nc(C(Cl)(Cl)Cl)n1 [Cmpd 65]
- D6 ([1]; SYBR Green Assay): 32 ng/mL
- C235 ([2]; SYBR Green Assay): 31 ng/mL
- W2 ([3]; SYBR Green Assay): 32 ng/mL
- hERG [4, 5]: 83%

Compound: COc1cccc(-c2nc(NCCN3CCCC3)nc(C(Cl)(Cl)Cl)n2)c1 [Cmpd 192]
- D6 ([1]; SYBR Green Assay): 18 ng/mL
- C235 ([2]; SYBR Green Assay): 12 ng/mL
- W2 ([3]; SYBR Green Assay): 13 ng/mL
- hERG [4, 5]: 100%

Compound: CCN1CCC(CC1)C(C)Nc2nc(Nc3cc(Cl)cc(Cl)c3)nc(n2)C(Cl)(Cl)Cl [Compound 645]
- D6 (SYBR Green Assay IC50) [1]: 0.07911 µg/mL
- C235 (SYBR Green Assay IC50) [2]: 0.05886 µg/mL
- W2 (SYBR Green Assay IC50) [3]: 0.0375 µg/mL
- hERG (% inhibition) [4]: 75%

Compound: ClC(Cl)(Cl)c1nc(NCCN2CCCC2)nc(-c2ccc(OCc3ccccc3)cc2)n1 [Cmpd 35]
- D6 ([1]; SYBR Green Assay): 194 ng/mL
- C235 ([2]; SYBR Green Assay): 186 ng/mL
- W2 ([3]; SYBR Green Assay): 125 ng/mL
- hERG [4, 5]: 56%

Compound: 4-(4-(((1-ethylpiperidin-4-yl)methyl)amino)-6-(trichloromethyl)-1,3,5-triazin-2-yl)benzoic acid [Example 12]
- D6 ([1]; SYBR Green Assay): 5 ng/mL
- C235 ([2]; SYBR Green Assay): 4 ng/mL
- W2 ([3]; SYBR Green Assay): 11 ng/mL
- hERG ([4]; hERG activity as % inhibition): 39%

Compound: CN1CCN(c2nc(-c3ccc(Cl)cc3)nc(C(Cl)(Cl)Cl)n2)CC1 [Cmpd 29]
- D6 ([1]; SYBR Green Assay): 307 ng/mL
- C235 ([2]; SYBR Green Assay): 351 ng/mL
- W2 ([3]; SYBR Green Assay): 173 ng/mL
- hERG [4, 5]: 5%

Compound: CCN(CC)CCNc1nc(Nc2ccc(OC(F)(F)F)cc2)nc(C(Cl)(Cl)Cl)n1 [Cmpd 374]
- D6 (SYBR Green Assay IC50) [1]: 0.002 µg/mL
- C235 (SYBR Green Assay IC50) [2]: 0.005 µg/mL
- W2 (SYBR Green Assay IC50) [3]: 0.005 µg/mL
- hERG (% inhibition) [4]: 109%

Compound: ClC(Cl)(Cl)c1nc(nc(n1)c2ccccc2)N3CC4CC3CN4 [Compound 720]
- D6 ([1]; SYBR Green Assay): 56 ng/mL
- C235 ([2]; SYBR Green Assay): 89 ng/mL
- W2 ([3]; SYBR Green Assay): 35 ng/mL
- hERG ([4]; hERG activity as % inhibition): 84%

Compound: CN1CCCC1CCNc1nc(-c2ccc(F)cc2)nc(C(Cl)(Cl)Cl)n1 (stereo not shown) [Cmpd 382]
- D6 (SYBR Green Assay IC50) [1]: 0.017 µg/mL
- C235 (SYBR Green Assay IC50) [2]: 0.036 µg/mL
- W2 (SYBR Green Assay IC50) [3]: 0.02 µg/mL
- hERG (% inhibition) [4]: 105%

Compound: CCN1CCC(CNc2nc(-c3ccc(-c4ccccc4)cc3)nc(C(Cl)(Cl)Cl)n2)CC1 [Cmpd 306]
- D6 ([1]; SYBR Green Assay): 54 ng/mL
- C235 ([2]; SYBR Green Assay): 87 ng/mL
- W2 ([3]; SYBR Green Assay): 30 ng/mL
- hERG [4, 5]: 38%

Compound: CS(=O)(=O)c1ccc(-c2nc(NCCN3CCCC3)nc(C(Cl)(Cl)Cl)n2)cc1 [Cmpd 39]
- D6 ([1]; SYBR Green Assay): 85 ng/mL
- C235 ([2]; SYBR Green Assay): 92 ng/mL
- W2 ([3]; SYBR Green Assay): 45 ng/mL
- hERG [4, 5]: 90%

Compound: CC(C)(C)c1ccc(cc1)c2nc(Nc3ccncc3)nc(n2)C(Cl)(Cl)Cl [Compound 739]
- D6 ([1]; SYBR Green Assay): 23 ng/mL
- C235 ([2]; SYBR Green Assay): 25 ng/mL
- W2 ([3]; SYBR Green Assay): 24 ng/mL
- hERG ([4]; hERG activity as % inhibition): 26%

Compound: CCN(CC)CCNc1nc(-c2ccc3ccccc3c2)nc(C(Cl)(Cl)Cl)n1 [Cmpd 220]
- D6 ([1]; SYBR Green Assay): 40 ng/mL
- C235 ([2]; SYBR Green Assay): 12 ng/mL
- W2 ([3]; SYBR Green Assay): 8 ng/mL
- hERG [4, 5]: 66%

Compound: CN1CCCC1CCNc1nc(-c2ccc(Cl)cc2)nc(C(Cl)(Cl)Cl)n1 (stereo not shown) [Cmpd 91]
- D6 ([1]; SYBR Green Assay): 31 ng/mL
- C235 ([2]; SYBR Green Assay): 32 ng/mL
- W2 ([3]; SYBR Green Assay): 19 ng/mL
- hERG [4, 5]: 79%

Compound: Clc1ccc(-c2nc(NCCCCCN3CCCC3)nc(C(Cl)(Cl)Cl)n2)cc1 [Cmpd 561]
- D6 (SYBR Green Assay IC50) [1]: 0.03967 µg/mL
- C235 (SYBR Green Assay IC50) [2]: 0.03869 µg/mL
- W2 (SYBR Green Assay IC50) [3]: 0.02784 µg/mL
- hERG (% inhibition) [4]: 63%

Compound: Cc1cc(CNc2nc(nc(n2)C(Cl)(Cl)Cl)c3ccc(Cl)c(Cl)c3)n(C)n1 [Compound 708]
- D6 ([1]; SYBR Green Assay): 319.7 ng/mL
- C235 ([2]; SYBR Green Assay): 221 ng/mL
- W2 ([3]; SYBR Green Assay): 75.2 ng/mL
- hERG ([4]; hERG activity as % inhibition): 12.2%

Compound: COc1ccc(Cc2nc(NCCN3CCCC3C)nc(C(Cl)(Cl)Cl)n2)cc1 (stereo not shown) [Cmpd 89]
- D6 ([1]; SYBR Green Assay): 805 ng/mL
- C235 ([2]; SYBR Green Assay): 991 ng/mL
- W2 ([3]; SYBR Green Assay): 718 ng/mL
- hERG [4, 5]: 50%

Compound: CN1CCC(Nc2nc(-c3cccc(C(F)(F)F)c3)nc(C(Cl)(Cl)Cl)n2)CC1 [Cmpd 212]
- D6 ([1]; SYBR Green Assay): 45 ng/mL
- C235 ([2]; SYBR Green Assay): 25 ng/mL
- W2 ([3]; SYBR Green Assay): 16 ng/mL
- hERG [4, 5]: 80%

Compound: Cc1ccccc1-c1nc(NCCN2CCCC2)nc(C(Cl)(Cl)Cl)n1 [Cmpd 121]
- D6 ([1]; SYBR Green Assay): 70 ng/mL
- C235 ([2]; SYBR Green Assay): 84 ng/mL
- W2 ([3]; SYBR Green Assay): 42 ng/mL
- hERG [4, 5]: 103%

Compound: CCC(N)(CC)CNc1nc(-c2ccc(Cl)cc2)nc(C(Cl)(Cl)Cl)n1 [Cmpd 356]
- D6 (SYBR Green Assay IC50) [1]: 0.003 µg/mL
- C235 (SYBR Green Assay IC50) [2]: 0.007 µg/mL
- W2 (SYBR Green Assay IC50) [3]: 0.003 µg/mL
- hERG (% inhibition) [4]: 44%

Compound: CC(CNc1nc(-c2ccc(Cl)c(Cl)c2)nc(C(Cl)(Cl)Cl)n1)N(C)C (stereo not shown) [Example 1, N^1-(4-(3,4-dichlorophenyl)-6-(trichloromethyl)-1,3,5-triazin-2-yl)-N^2,N^2-dimethylpropane-1,2-diamine]
- IC50 [1, 6]: 0.0416 µg/mL (≈ 0.0937 µM)
- IC50 [2, 6]: 0.0367 µg/mL (≈ 0.0828 µM)
- IC50 [3, 6]: 0.0294 µg/mL (≈ 0.0663 µM)
- hERG ([4]; hERG activity as % inhibition): 95%

Compound: CCN(CC)CC(C)Nc1nc(Nc2cc(Cl)cc(Cl)c2)nc(n1)C(Cl)(Cl)Cl [Compound 644]
- D6 (SYBR Green Assay IC50) [1]: 0.131 µg/mL
- C235 (SYBR Green Assay IC50) [2]: 0.014 µg/mL
- W2 (SYBR Green Assay IC50) [3]: 0.009 µg/mL
- hERG (% inhibition) [4]: 100%

Compound: CC(C)(C)OC(=O)N1CC2CC1CN2c1nc(-c2ccc(S(C)(=O)=O)cc2)nc(C(Cl)(Cl)Cl)n1 (stereo not shown) [Compound 715, CC(C)(C)OC(═O)N1CC2CC1CN2c3nc(nc(n3)C(Cl)(Cl)Cl)c4ccc(cc4)S(═O)(═O)C]
- D6 ([1]; SYBR Green Assay): 126 ng/mL
- C235 ([2]; SYBR Green Assay): 185 ng/mL
- W2 ([3]; SYBR Green Assay): 63 ng/mL
- hERG ([4]; hERG activity as % inhibition): 19%

Compound: CC1(C)CC(Nc2nc(-c3ccc(C(C)(C)C)cc3)nc(C(Cl)(Cl)Cl)n2)CC(C)(C)N1 [Cmpd 321]
- D6 ([1]; SYBR Green Assay): 6 ng/mL
- C235 ([2]; SYBR Green Assay): 11 ng/mL
- W2 ([3]; SYBR Green Assay): 3 ng/mL
- hERG [4, 5]: 11%

From patent US9334246B2, “Substituted triazines for malaria treatment and chemoprophylaxis” (The United States of America, as represented by the …, priority 2013, dated 2016)
